# Data as given in ChEMBL document CHEMBL1681651, “A broad spectrum anticancer nucleoside with selective toxicity against human colon cells in vitro” (2011).
# What was measured:
# Type in all cases: functional
# MCF7 = assay: Growth inhibition of human MCF7 cells after 48 hrs by […] growth inhibition assay; conditions: MCF7, 48 h
# SNB-75 = assay: Growth inhibition of human SNB75 cells assessed as cell growth at 1 mM after 48 hrs by SRB assay; conditions: SNB-75, 48 h, read-out: Activity
# SK-MEL-5 = assay: Growth inhibition of human SK-MEL-5 cells assessed as cell growth at 10 uM after 48 hrs by SRB assay; conditions: SK-MEL-5, 48 h, read-out: Activity
# SNB-19 = assay: Growth inhibition of human SNB19 cells after 48 hrs by […] growth inhibition assay; conditions: SNB-19, 48 h
# KM12 = assay: Growth inhibition of human KM12 cells assessed as cell growth at 100 uM after 48 hrs by SRB assay; conditions: KM12, 48 h, read-out: Activity
# DU-145 = assay: Growth inhibition of human DU145 cells assessed as cell growth at 100 uM after 48 hrs by SRB assay; conditions: DU-145, 48 h, read-out: Activity
# MDA-MB-435 = assay: Growth inhibition of human MDA-MB-435 cells assessed as cell growth at 100 uM after 48 hrs by SRB assay; conditions: MDA-MB-435, 48 h, read-out: Activity
# 786-0 [1] = assay: Growth inhibition of human 786-0 cells assessed as cell growth at 0.1 uM after 48 hrs by SRB assay; conditions: 786-0, 48 h, read-out: Activity
# SF-295 = assay: Growth inhibition of human SF295 cells assessed as cell growth at 10 uM after 48 hrs by SRB assay; conditions: SF-295, 48 h, read-out: Activity
# SN12C = assay: Growth inhibition of human SN12C cells assessed as cell growth at 10 uM after 48 hrs by SRB assay; conditions: read-out: Activity
# LOX IMVI = assay: Growth inhibition of human LOXIMVI cells assessed as cell growth at 1 uM after 48 hrs by SRB assay; conditions: read-out: Activity
# UACC-257 [2] = assay: Growth inhibition of human UACC257 cells assessed as cell growth at 100 uM after 48 hrs by SRB assay; conditions: UACC-257, 48 h, read-out: Activity
# HOP-62 = assay: Growth inhibition of human HOP62 cells assessed as cell growth at 100 uM after 48 hrs by SRB assay; conditions: HOP-62, 48 h, read-out: Activity
# [3] = Growth inhibition of human […] cells assessed as cell growth at 1 uM after 48 hrs by SRB assay; conditions: read-out: Activity
# HOP-92 = assay: Growth inhibition of human HOP92 cells assessed as cell growth at 0.1 uM after 48 hrs by SRB assay; conditions: HOP-92, 48 h, read-out: Activity
# UACC-257 [4] = assay: Growth inhibition of human UACC257 cells assessed as cell growth at 1 mM after 48 hrs by SRB assay; conditions: UACC-257, 48 h, read-out: Activity
# T47D [5] = assay: Growth inhibition of human T47D cells after 48 hrs by […] growth inhibition assay
# M14 = assay: Growth inhibition of human M14 cells assessed as cell growth at 100 uM after 48 hrs by SRB assay; conditions: M14, 48 h, read-out: Activity
# HT-29 [6] = assay: Growth inhibition of human HT-29 cells assessed as cell growth at 0.1 uM after 48 hrs by SRB assay; conditions: HT-29, 48 h, read-out: Activity
# NCI-H522 = assay: Growth inhibition of human NCI-H522 cells after 48 hrs by […] growth inhibition assay; conditions: NCI-H522, 48 h
# NCI-H23 [7] = assay: Growth inhibition of human NCI-H23 cells assessed as cell growth at 1 uM after 48 hrs by SRB assay; conditions: NCI-H23, 48 h, read-out: Activity
# 786-0 [8] = assay: Growth inhibition of human 786-0 cells assessed as cell growth at 10 uM after 48 hrs by SRB assay; conditions: 786-0, 48 h, read-out: Activity
# T47D [9] = assay: Growth inhibition of human T47D cells assessed as cell growth at 1 uM after 48 hrs by SRB assay; conditions: read-out: Activity
# CAKI-1 = assay: Growth inhibition of human Caki1 cells assessed as cell growth at 1 uM after 48 hrs by SRB assay; conditions: CAKI-1, 48 h, read-out: Activity
# U-251 = assay: Growth inhibition of human U251 cells after 48 hrs by […] growth inhibition assay; conditions: U-251, 48 h
# NCI-H23 [10] = assay: Growth inhibition of human NCI-H23 cells assessed as cell growth at 1 mM after 48 hrs by SRB assay; conditions: NCI-H23, 48 h, read-out: Activity
# OVCAR-4 = assay: Growth inhibition of human OVCAR4 cells assessed as cell growth at 100 uM after 48 hrs by SRB assay; conditions: OVCAR-4, 48 h, read-out: Activity
# HT-29 [11] = assay: Growth inhibition of human HT-29 cells assessed as cell growth at 1 mM after 48 hrs by SRB assay; conditions: HT-29, 48 h, read-out: Activity
# COLO 205 = assay: Growth inhibition of human COLO205 cells assessed as cell growth at 1 mM after 48 hrs by SRB assay; conditions: COLO 205, 48 h, read-out: Activity
# UACC-62 = assay: Growth inhibition of human UACC62 cells assessed as cell growth at 0.1 uM after 48 hrs by SRB assay; conditions: UACC-62, 48 h, read-out: Activity
# UACC-257 [12] = assay: Growth inhibition of human UACC257 cells assessed as cell growth at 1 uM after 48 hrs by SRB assay; conditions: UACC-257, 48 h, read-out: Activity
# MDA-MB-231 = assay: Growth inhibition of human MDA-MB-231 cells assessed as cell growth at 1 uM after 48 hrs by SRB assay; conditions: MDA-MB-231, 48 h, read-out: Activity
# T47D [13] = assay: Growth inhibition of human T47D cells assessed as cell growth at 10 uM after 48 hrs by SRB assay; conditions: read-out: Activity
# OVCAR-8 = assay: Growth inhibition of human OVCAR8 cells assessed as cell growth at 1 uM after 48 hrs by SRB assay; conditions: OVCAR-8, 48 h, read-out: Activity
# A498 = assay: Growth inhibition of human A498 cells assessed as cell growth at 10 uM after 48 hrs by SRB assay; conditions: A498, 48 h, read-out: Activity
# [14] = read-out: LC50 (the source's name)
# [15] = read-out: pLC50 (the source's name) (converted)
compound,measurement,setting,value
CNC(=O)NC[C@H]1O[C@@H](n2cnc3c(NC(=O)Nc4ccccc4)ncnc32)[C@H](O[Si](C)(C)C(C)(C)C)[C@@H]1O[Si](C)(C)C(C)(C)C,GI50,MCF7; read-out: GI50,2.69 µM
same,CC50,MCF7; [14],> 100 µM
same,TGI,MCF7; read-out: TGI,19.3 µM
same,GI50,MCF7; read-out: pGI50 (converted),2.69 µM
same,CC50,MCF7; [15],> 100 µM
same,TGI,MCF7; read-out: pTGI (converted),19.5 µM
same,growth at 1000 µM,SNB-75,-12%
same,growth at 10 µM,SK-MEL-5,89%
same,GI50,SNB-19; read-out: GI50,4.57 µM
same,CC50,SNB-19; [14],> 100 µM
same,TGI,SNB-19; read-out: TGI,> 100 µM
same,GI50,SNB-19; read-out: pGI50 (converted),4.57 µM
same,CC50,SNB-19; [15],> 100 µM
same,TGI,SNB-19; read-out: pTGI,> 100 µM
same,growth at 100 µM,KM12,-66%
same,growth at 100 µM,DU-145,-35%
same,growth at 100 µM,MDA-MB-435,9%
same,growth at 0.1 µM,786-0 [1],108%
same,growth at 10 µM,SF-295,111%
same,growth at 10 µM,SN12C,98%
same,growth at 1 µM,LOX IMVI,101%
same,growth at 100 µM,UACC-257 [2],11%
same,growth at 100 µM,HOP-62,26%
same,growth at 1 µM,[3],98%
same,growth at 0.1 µM,HOP-92,85%
same,growth at 1000 µM,UACC-257 [4],-24%
same,GI50,T47D [5]; read-out: GI50,2.87 µM
same,CC50,T47D [5]; [14],> 100 µM
same,TGI,T47D [5]; read-out: TGI,10.3 µM
same,GI50,T47D [5]; read-out: pGI50 (converted),2.88 µM
same,CC50,T47D [5]; [15],> 100 µM
same,TGI,T47D [5]; read-out: pTGI (converted),10.2 µM
same,growth at 100 µM,M14,19%
same,growth at 0.1 µM,HT-29 [6],102%
same,GI50,NCI-H522; read-out: GI50,2.39 µM
same,CC50,NCI-H522; [14],> 100 µM
same,TGI,NCI-H522; read-out: TGI,7.14 µM
same,GI50,NCI-H522; read-out: pGI50 (converted),2.4 µM
same,CC50,NCI-H522; [15],> 100 µM
same,TGI,NCI-H522; read-out: pTGI (converted),7.08 µM
same,growth at 1 µM,NCI-H23 [7],106%
same,growth at 10 µM,786-0 [8],110%
same,growth at 1 µM,T47D [9],105%
same,growth at 1 µM,CAKI-1,99%
same,GI50,U-251; read-out: GI50,2.96 µM
same,CC50,U-251; [14],> 100 µM
same,TGI,U-251; read-out: TGI,10.8 µM
same,GI50,U-251; read-out: pGI50 (converted),2.95 µM
same,CC50,U-251; [15],> 100 µM
same,TGI,U-251; read-out: pTGI (converted),10.7 µM
same,growth at 1000 µM,NCI-H23 [10],-53%
same,growth at 100 µM,OVCAR-4,7%
same,growth at 1000 µM,HT-29 [11],-100%
same,growth at 1000 µM,COLO 205,-94%
same,growth at 0.1 µM,UACC-62,102%
same,growth at 1 µM,UACC-257 [12],100%
same,growth at 1 µM,MDA-MB-231,109%
same,growth at 10 µM,T47D [13],92%
same,growth at 1 µM,OVCAR-8,106%
same,growth at 10 µM,A498,90%
CNC(=O)OC[C@H]1O[C@@H](n2cnc3c(NC(=O)Nc4ccccc4)ncnc32)[C@H](O[Si](C)(C)C(C)(C)C)[C@@H]1O[Si](C)(C)C(C)(C)C,growth at 10 µM,SK-MEL-5,101%
same,growth at 10 µM,SF-295,108%
same,growth at 10 µM,SN12C,101%
same,growth at 10 µM,786-0 [8],94.6%
same,growth at 10 µM,T47D [13],116%
same,growth at 10 µM,A498,98.4%
